Data as given in EP0041644B1 (priority 1980, dated 1981).

Columns and labels:
L-1210 Leukemia [1] = experiment: L-1210 Leukemia (Table IX); type: in vivo, mice
L-1210 Leukemia [2] = experiment: L-1210 Leukemia (Table VIII)
Experimental: The sodium and ammonium salts of the present invention were tested against transplantable mouse tumors as indicated below. The methodology used generally followed the protocols of the National Cancer Institute (Cancer Chemotherapy Rep., Part 3, 3, 1-103 (1972). The essential experimental details are given at the bottom of the following tables.

L1210 Leukemia = L1210 Leukemia - Test 3 (vehicle comparison); type: in vivo, mice; conditions: Day 1 only, vehicle Saline

N.N.[Cl][Pt][Cl] [Cis-DDP, cis-diammine dichloroplatinum (II)]
MST Days (L-1210 Leukemia [1]; 2 mg/kg/inj ip, Day 1): 9.0 days | Survivors Day 5(45) (L-1210 Leukemia [1]; 2 mg/kg/inj ip, Day 1): 6/6 | Average Weight Change,g (L-1210 Leukemia [1]; 2.4 mg/kg/inj ip, qd 1→9): -3.8 g | Effect MST % T/C (L-1210 Leukemia [1]; 2.4 mg/kg/inj ip, qd 1→9): 177 % T/C | MST Days (L-1210 Leukemia [1]; 2.4 mg/kg/inj ip, qd 1→9): 11.5 days | Survivors Day 5(45) (L-1210 Leukemia [1]; 2.4 mg/kg/inj ip, qd 1→9): 6/6 | Average Weight Change,g (L-1210 Leukemia [1]; 4 mg/kg/inj ip, Day 1): -2.1 g | Effect MST % T/C (L-1210 Leukemia [1]; 4 mg/kg/inj ip, Day 1): 123 % T/C | MST Days (L-1210 Leukemia [1]; 4 mg/kg/inj ip, Day 1): 8.0 days | Survivors Day 5(45) (L-1210 Leukemia [1]; 4 mg/kg/inj ip, Day 1): 6/6 | Average Weight Change,g (L-1210 Leukemia [1]; 6 mg/kg/inj ip, Day 1): -3.7 g | Effect MST % T/C (L-1210 Leukemia [1]; 6 mg/kg/inj ip, Day 1): 154 % T/C | MST Days (L-1210 Leukemia [1]; 6 mg/kg/inj ip, Day 1): 10.0 days | Survivors Day 5(45) (L-1210 Leukemia [1]; 6 mg/kg/inj ip, Day 1): 6/6 | Average Weight Change,g (L-1210 Leukemia [1]; 8 mg/kg/inj ip, Day 1): -3.4 g | Effect MST % T/C (L-1210 Leukemia [1]; 8 mg/kg/inj ip, Day 1): 185 % T/C | MST Days (L-1210 Leukemia [1]; 8 mg/kg/inj ip, Day 1): 12.0 days | Survivors Day 5(45) (L-1210 Leukemia [1]; 8 mg/kg/inj ip, Day 1): 6/6 | maximum T/C (L-1210 Leukemia [1]; qd 1→9 (cis-DDP 2.4, parent 8 and 12, sodium salt 12 mg/kg/injection)): 177% | maximum T/C (L-1210 Leukemia [1]; single ip injection at maximum tolerated dose (cis-DDP 8 mg/kg, the two others 36 mg/kg)): 185% | Average Weight Change,g (L-1210 Leukemia [2]; 0.4 mg/kg/inj ip, qd 1→9): +0.8 g | Effect MST % T/C (L-1210 Leukemia [2]; 0.4 mg/kg/inj ip, qd 1→9): 117 % T/C | MST Days (L-1210 Leukemia [2]; 0.4 mg/kg/inj ip, qd 1→9): 7.0 days | Survivors Day 5(30) (L-1210 Leukemia [2]; 0.4 mg/kg/inj ip, qd 1→9): 6/6 | Average Weight Change,g (L-1210 Leukemia [2]; 0.8 mg/kg/inj ip, qd 1→9): -0.8 g | Effect MST % T/C (L-1210 Leukemia [2]; 0.8 mg/kg/inj ip, qd 1→9): 133 % T/C | MST Days (L-1210 Leukemia [2]; 0.8 mg/kg/inj ip, qd 1→9): 8.0 days | Survivors Day 5(30) (L-1210 Leukemia [2]; 0.8 mg/kg/inj ip, qd 1→9): 6/6 | Average Weight Change,g (L-1210 Leukemia [2]; 1.6 mg/kg/inj ip, qd 1→9): -2.5 g | Effect MST % T/C (L-1210 Leukemia [2]; 1.6 mg/kg/inj ip, qd 1→9): 200 % T/C | MST Days (L-1210 Leukemia [2]; 1.6 mg/kg/inj ip, qd 1→9): 12.0 days | Survivors Day 5(30) (L-1210 Leukemia [2]; 1.6 mg/kg/inj ip, qd 1→9): 6/6 | Average Weight Change,g (L-1210 Leukemia [2]; 2.4 mg/kg/inj ip, qd 1→9): -3.1 g | Effect MST % T/C (L-1210 Leukemia [2]; 2.4 mg/kg/inj ip, qd 1→9): 167 % T/C | MST Days (L-1210 Leukemia [2]; 2.4 mg/kg/inj ip, qd 1→9): 10.0 days | Survivors Day 5(30) (L-1210 Leukemia [2]; 2.4 mg/kg/inj ip, qd 1→9): 6/6 | Average Weight Change,g (L-1210 Leukemia [2]; 4 mg/kg/inj ip, d.1): -1.5 g | Effect MST % T/C (L-1210 Leukemia [2]; 4 mg/kg/inj ip, d.1): 167 % T/C | MST Days (L-1210 Leukemia [2]; 4 mg/kg/inj ip, d.1): 10.0 days | Survivors Day 5(30) (L-1210 Leukemia [2]; 4 mg/kg/inj ip, d.1): 6/6 | Average Weight Change,g (L-1210 Leukemia [2]; 6 mg/kg/inj ip, d.1): -3.7 g | Effect MST % T/C (L-1210 Leukemia [2]; 6 mg/kg/inj ip, d.1): 167 % T/C | MST Days (L-1210 Leukemia [2]; 6 mg/kg/inj ip, d.1): 10.0 days | Survivors Day 5(30) (L-1210 Leukemia [2]; 6 mg/kg/inj ip, d.1): 6/6 | Average Weight Change,g (L-1210 Leukemia [2]; 8 mg/kg/inj ip, d.1): -2.8 g | Effect MST % T/C (L-1210 Leukemia [2]; 8 mg/kg/inj ip, d.1): 158 % T/C | MST Days (L-1210 Leukemia [2]; 8 mg/kg/inj ip, d.1): 9.5 days | Survivors Day 5(30) (L-1210 Leukemia [2]; 8 mg/kg/inj ip, d.1): 6/6 | Average Weight Change,g (L-1210 Leukemia [2]; 10 mg/kg/inj ip, d.1): -2.0 g | Effect MST % T/C (L-1210 Leukemia [2]; 10 mg/kg/inj ip, d.1): 208 % T/C | MST Days (L-1210 Leukemia [2]; 10 mg/kg/inj ip, d.1): 12.5 days | Survivors Day 5(30) (L-1210 Leukemia [2]; 10 mg/kg/inj ip, d.1): 6/6 | maximum T/C (L-1210 Leukemia [2]; qd 1→9, 1.6 mg/kg/inj): 200% | maximum T/C (L-1210 Leukemia [2]; single ip injections): 208% | optimal doses (L-1210 Leukemia [2]; single ip injections, dose of maximum T/C): 10 mg/kg | Average Weight Change (L1210 Leukemia; 4 mg/kg ip): −1.7 | Effect MST % T/C (L1210 Leukemia; 4 mg/kg ip): 143 % T/C | MST Days (L1210 Leukemia; 4 mg/kg ip): 10.0 days | Survivors Day 5 (L1210 Leukemia; 4 mg/kg ip): 6/6 | Average Weight Change (L1210 Leukemia; 6 mg/kg ip): −2.3 | Effect MST % T/C (L1210 Leukemia; 6 mg/kg ip): 143 % T/C | MST Days (L1210 Leukemia; 6 mg/kg ip): 10.0 days | Survivors Day 5 (L1210 Leukemia; 6 mg/kg ip): 6/6 | Average Weight Change (L1210 Leukemia; 8 mg/kg ip): −1.8 | Effect MST % T/C (L1210 Leukemia; 8 mg/kg ip): 150 % T/C | MST Days (L1210 Leukemia; 8 mg/kg ip): 10.5 days | Survivors Day 5 (L1210 Leukemia; 8 mg/kg ip): 6/6 | Average Weight Change (L1210 Leukemia; 10 mg/kg ip): −4.5 | Effect MST % T/C (L1210 Leukemia; 10 mg/kg ip): 150 % T/C | MST Days (L1210 Leukemia; 10 mg/kg ip): 10.5 days | Survivors Day 5 (L1210 Leukemia; 10 mg/kg ip): 6/6
